Test results taken from patent US20090018134A1, “Compounds - 945” (AstraZeneca AB, priority 2007, published 2009).

Target: T1, mTOR (Homo sapiens, UniProt P42345)
T1 construct: FLAG; made in house
Test: In Vitro mTOR Kinase Assay (Echo), Test (a)(ii)
Format: biochemical
Conditions: table of enzyme assay Test (a)(ii); read-out: Test (a)(ii) IC50
Outline: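 FLAG-tagged truncated mTOR (residues 1362-2549), expressed in HEK293 and purified via the FLAG tag, phosphorylated a biotinylated peptide over 2 hours at room temperature. EDTA stopped the reaction. Phospho-T389 was detected overnight by AlphaScreen using the p70 S6K T389 antibody with Protein A/streptavidin beads; IC50 reported.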

T1 sequence (P42345 1362-2549): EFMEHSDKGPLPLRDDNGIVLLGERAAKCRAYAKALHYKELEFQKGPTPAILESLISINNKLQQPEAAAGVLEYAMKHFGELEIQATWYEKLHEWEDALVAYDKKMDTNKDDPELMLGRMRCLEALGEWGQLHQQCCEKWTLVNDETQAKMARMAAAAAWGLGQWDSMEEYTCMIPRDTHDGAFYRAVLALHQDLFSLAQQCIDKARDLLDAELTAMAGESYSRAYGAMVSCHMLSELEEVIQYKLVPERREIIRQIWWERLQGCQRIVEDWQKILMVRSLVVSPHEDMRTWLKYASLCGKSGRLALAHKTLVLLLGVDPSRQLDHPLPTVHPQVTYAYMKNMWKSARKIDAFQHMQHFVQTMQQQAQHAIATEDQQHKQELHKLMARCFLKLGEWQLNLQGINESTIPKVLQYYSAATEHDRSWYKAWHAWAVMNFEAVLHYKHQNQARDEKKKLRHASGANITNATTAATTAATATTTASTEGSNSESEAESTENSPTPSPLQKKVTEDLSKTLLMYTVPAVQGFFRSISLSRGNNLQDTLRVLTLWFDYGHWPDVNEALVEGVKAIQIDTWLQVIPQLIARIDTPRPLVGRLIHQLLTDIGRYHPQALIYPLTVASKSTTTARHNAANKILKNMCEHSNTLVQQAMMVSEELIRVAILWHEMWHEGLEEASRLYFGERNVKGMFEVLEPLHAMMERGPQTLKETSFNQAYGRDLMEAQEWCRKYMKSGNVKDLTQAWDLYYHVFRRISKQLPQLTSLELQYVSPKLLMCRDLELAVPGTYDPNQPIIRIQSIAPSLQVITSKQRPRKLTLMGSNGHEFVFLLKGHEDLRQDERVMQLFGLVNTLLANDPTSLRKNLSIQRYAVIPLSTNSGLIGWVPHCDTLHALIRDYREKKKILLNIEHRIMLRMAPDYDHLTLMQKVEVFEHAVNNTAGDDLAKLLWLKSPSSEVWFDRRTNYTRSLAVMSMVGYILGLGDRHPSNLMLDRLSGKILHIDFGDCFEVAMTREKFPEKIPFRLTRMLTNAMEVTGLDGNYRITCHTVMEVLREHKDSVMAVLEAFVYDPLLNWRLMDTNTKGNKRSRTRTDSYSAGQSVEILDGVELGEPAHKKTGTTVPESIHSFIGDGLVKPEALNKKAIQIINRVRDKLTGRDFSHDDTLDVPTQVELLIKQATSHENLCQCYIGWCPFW

SMILES | IC50 [nM]
CNC(=O)Nc1ccc(-c2nc(N3CCOC[C@@H]3C)cc(C3(S(C)(=O)=O)CCCC3)n2)cn1 [Example 14o, 3-methyl-1-[5-[4-[(3S)-3-methylmorpholin-4-yl]-6-(1-methylsulfonylcyclopentyl)pyri-midin-2-yl]pyridin-2-yl]urea] | 21.7
C[C@H]1COCCN1c1cc(C2(S(C)(=O)=O)CCCC2)nc(-c2ccc(NC(=O)NCCN(C)C)nc2)n1 [Example 14p, 3-(2-dimethylaminoethyl)-1-[5-[4-[(3S)-3-methylmorpholin-4-yl]-6-(1-methylsulfonylcyclopentyl)pyri-midin-2-yl]pyridin-2-yl]urea] | 537
C[C@H]1COCCN1c1cc(C2(S(C)(=O)=O)CCCC2)nc(-c2ccc(NC(=O)NCCO)nc2)n1 [Example 14q, 3-(2-hydroxyethyl)-1-[5-[4-[(3S)-3-methylmorpholin-4-yl]-6-(1-methylsulfonylcyclopentyl)pyri-midin-2-yl]pyridin-2-yl]urea] | 26.5
C[C@H]1COCCN1c1cc(C2(S(C)(=O)=O)CCCC2)nc(-c2ccc(NC(=O)Nc3cnn(C)c3)nc2)n1 [Example 14r, 1-[5-[4-[(3S)-3-methylmorpholin-4-yl]-6-(1-methylsulfonylcyclopentyl)pyri-midin-2-yl]pyridin-2-yl]-3-(1-methylpyrazol-4-yl)urea] | 10.3
C[C@H]1COCCN1c1cc(C2(S(C)(=O)=O)CCCC2)nc(-c2cnc(NC(=O)NC3CC3)nc2)n1 [Example 14s, 3-cyclopropyl-1-[5-[4-[(3S)-3-methylmorpholin-4-yl]-6-(1-methylsulfonylcyclopentyl)pyri-midin-2-yl]pyrimidin-2-yl]urea] | 122
CNC(=O)Nc1ncc(-c2nc(N3CCOC[C@@H]3C)cc(C3(S(C)(=O)=O)CCCC3)n2)cn1 [Example 14t, 3-methyl-1-[5-[4-[(3S)-3-methylmorpholin-4-yl]-6-(1-methylsulfonylcyclopentyl)pyri-midin-2-yl]pyrimidin-2-yl]urea] | 197
C[C@H]1COCCN1c1cc(C2(S(C)(=O)=O)CCCC2)nc(-c2cnc(NC(=O)NCCO)nc2)n1 [Example 14u, 3-(2-hydroxyethyl)-1-[5-[4-[(3S)-3-methylmorpholin-4-yl]-6-(1-methylsulfonylcyclopentyl)pyri-midin-2-yl]pyrimidin-2-yl]urea] | 123
C[C@H]1COCCN1c1cc(C2(S(C)(=O)=O)CCCC2)nc(-c2cnc(NC(=O)Nc3cnn(C)c3)nc2)n1 [Example 14v, 1-[5-[4-[(3S)-3-methylmorpholin-4-yl]-6-(1-methylsulfonylcyclopentyl)pyri-midin-2-yl]pyrimidin-2-yl]-3-(1-methylpyrazol-4-yl)urea] | 82.3
C[C@H]1COCCN1c1cc(C2(S(=O)(=O)C3CC3)CC2)nc(-c2cnc(NC(=O)NC3CC3)nc2)n1 [Example 14w, 3-cyclopropyl-1-[5-[4-(1-cyclopropylsulfonylcyclopropyl)-6-[(3S)-3-methylmorpholin-4-yl]pyrimidin-2-yl]pyrimidin-2-yl]urea] | 208
CNC(=O)Nc1ncc(-c2nc(N3CCOC[C@@H]3C)cc(C3(S(=O)(=O)C4CC4)CC3)n2)cn1 [Example 14x, 1-[5-[4-(1-cyclopropylsulfonylcyclopropyl)-6-[(3S)-3-methylmorpholin-4-yl]pyrimidin-2-yl]pyrimidin-2-yl]-3-methylurea] | 630
C[C@H]1COCCN1c1cc(C2(S(=O)(=O)C3CC3)CC2)nc(-c2cnc(NC(=O)NCCO)nc2)n1 [Example 14y, 1-[5-[4-(1-cyclopropylsulfonylcyclopropyl)-6-[(3S)-3-methylmorpholin-4-yl]pyrimidin-2-yl]pyrimidin-2-yl]-3-(2-hydroxyethyl)urea] | 152
C[C@H]1COCCN1c1cc(C2(S(=O)(=O)C3CC3)CC2)nc(-c2cnc(NC(=O)Nc3cnn(C)c3)nc2)n1 [Example 14z, 1-[5-[4-(1-cyclopropylsulfonylcyclopropyl)-6-[(3S)-3-methylmorpholin-4-yl]pyrimidin-2-yl]pyrimidin-2-yl]-3-(1-methylpyrazol-4-yl)urea] | 171
C[C@H]1COCCN1c1cc(C2(S(=O)(=O)CCO)CC2)nc(-c2ccc(NC(=O)NC3CC3)cc2)n1 [Example 15, 3-Cyclopropyl-1-[4-[4-[1-(2-hydroxyethylsulfonyl)cyclopropyl]-6-[(3S)-3-methylmorpholin-4-yl]pyrimidin-2-yl]phenyl]urea] | 1.54
CCNC(=O)Nc1ccc(-c2nc(N3CCOC[C@@H]3C)cc(C3(S(=O)(=O)CCO)CC3)n2)cc1 [Example 15a, 3-ethyl-1-[4-[4-[1-(2-hydroxyethylsulfonyl)cyclopropyl]-6-[(3S)-3-methylmorpholin-4-yl]pyrimidin-2-yl]phenyl]urea] | 0.591
CNC(=O)Nc1ccc(-c2nc(N3CCOC[C@@H]3C)cc(C3(S(=O)(=O)CCO)CC3)n2)cc1 [Example 16, 1-[4-[4-[1-(2-Hydroxyethylsulfonyl)cyclopropyl]-6-[(3S)-3-methylmorpholin-4-yl]pyrimidin-2-yl]phenyl]-3-methylurea] | 1.42
C[C@H]1COCCN1c1cc(C2(S(=O)(=O)CCO)CC2)nc(-c2ccc(NC(=O)NC3CCC3)cc2)n1 [Example 16a, 3-cyclobutyl-1-[4-[4-[1-(2-hydroxyethylsulfonyl)cyclopropyl]-6-[(3S)-3-methylmorpholin-4-yl]pyrimidin-2-yl]phenyl]urea] | 10.1
C[C@H]1COCCN1c1cc(C2(S(=O)(=O)CCO)CC2)nc(-c2ccc(NC(=O)NCCO)cc2)n1 [Example 16b, 3-(2-hydroxyethyl)-1-[4-[4-[1-(2-hydroxyethylsulfonyl)cyclopropyl]-6-[(3S)-3-methylmorpholin-4-yl]pyrimidin-2-yl]phenyl]urea] | 5.77
C[C@H]1COCCN1c1cc(C2(S(=O)(=O)CCO)CC2)nc(-c2ccc(NC(=O)Nc3ncns3)cc2)n1 [Example 16c, 1-[4-[4-[1-(2-hydroxyethylsulfonyl)cyclopropyl]-6-[(3S)-3-methylmorpholin-4-yl]pyrimidin-2-yl]phenyl]-3-(1,2,4-thiadiazol-5-yl)urea] | 1.6
C[C@H]1COCCN1c1cc(C2(S(=O)(=O)CCO)CC2)nc(-c2ccc(NC(=O)Nc3cnn(C)c3)cc2)n1 [Example 16d, 1-[4-[4-[1-(2-hydroxyethylsulfonyl)cyclopropyl]-6-[(3S)-3-methylmorpholin-4-yl]pyrimidin-2-yl]phenyl]-3-(1-methylpyrazol-4-yl)urea] | 3.64
CCCNC(=O)Nc1ccc(-c2nc(N3CCOC[C@@H]3C)cc(C3(S(=O)(=O)CCO)CC3)n2)cc1 [Example 16e, 3-[4-[4-[1-(2-hydroxyethylsulfonyl)cyclopropyl]-6-[(3S)-3-methylmorpholin-4-yl]pyrimidin-2-yl]phenyl]-1-propylurea] | 21.4
C[C@H]1COCCN1c1cc(C2(S(=O)(=O)CCO)CC2)nc(-c2ccc(NC(=O)NCCCO)cc2)n1 [Example 16f, 1-[4-[4-[1-(2-hydroxyethylsulfonyl)cyclopropyl]-6-[(3S)-3-methylmorpholin-4-yl]pyrimidin-2-yl]phenyl]-3-(3-hydroxypropyl)urea] | 21.2
C[C@H]1COCCN1c1cc(C2(S(=O)(=O)CCO)CC2)nc(-c2ccc(NC(=O)NCCC#N)cc2)n1 [Example 16g, 3-(2-cyanoethyl)-1-[4-[4-[1-(2-hydroxyethylsulfonyl)cyclopropyl]-6-[(3S)-3-methylmorpholin-4-yl]pyrimidin-2-yl]phenyl]urea] | 17.6
